# Test system: MC38 tumors
# Experiment: Anti-tumor efficacy of Compound 1 and Compound 3 by IV and SC routes in the MC38 model (Example 9)
# Assay type: in vivo, mice
# Description: Female C57BL/6 mice were inoculated subcutaneously in the right flank with MC38 cells for tumor development. Six days after tumor inoculation, mice with tumor sizes ranging from 52-97 mm^3 (average tumor size 71 mm^3) were selected and assigned into 10 groups using stratified randomization with 8 mice per group based upon their tumor volumes. The treatments were started from the day of randomization (defined as D0), Group 1 was treated with Vehicle control, SC qd×5 days on (Mon-Fri)×4 cycles; Group 2 was treated with Compound 1, 1.4 mpk SC, qd×5 days on (Mon-Fri)×4 cycles; Group 3 was treated with Compound 1, 7 mpk IV, biw (Mon, Thu)×4 cycles; Group 4 was treated with Compound 1, 14 mpk IV, biw (Mon, Thu)×4 cycles; Group 5 was treated with Compound 1, 14 mpk IV, qw (Mon)×4 cycles; Group 6 was treated with Compound 1, 21 mpk IV, qw (Mon)×4 cycles; Group 7 was treated with Compound 3, 1 mpk SC, qd 5 days on (Mon-Fri)×4 cycles; Group 8 was treated with Compound 3, 3 mpk SC, qd 5 days on (Mon-Fri)×4 cycles; Group 9 was treated with Compound 3, 9 mpk SC, qd 5 days on (Mon-Fri)×4 cycles; and Group 10 was treated with Compound 3, 7 mpk IV, tiw (Mon, Wed, Fri)×4 cycles. The tumor sizes were measured three times per week during the treatment. Survival was monitored with tumor volume exceeding 2000 mm^3 as endpoint. The entire study was terminated on D44 after start of the treatment. All treatments were well-tolerated without any adverse effects or significant body weight loss.
# [1] = Group 7, 1 mpk SC qd Mon-Fri x4 cycles
# [2] = Group 7, 1 mpk SC qd Mon-Fri x4 cycles, day 11
# [3] = Group 8, 3 mpk SC qd Mon-Fri x4 cycles
# [4] = Group 8, 3 mpk SC qd Mon-Fri x4 cycles, day 11
# [5] = Group 9, 9 mpk SC qd Mon-Fri x4 cycles
# [6] = Group 9, 9 mpk SC qd Mon-Fri x4 cycles, day 11
# [7] = Group 10, 7 mpk IV tiw x4 cycles
compound,measurement,setting,value
"CC(=O)N[C@@H](Cc1c[nH]c2ccccc12)C(=O)N[C@@H](CCC(=O)C=[N+]=[N-])C(=O)O [Compound 3, (S)-2-((S)-2-acetamido-3-(1H-indol-3-yl)propanamido)-6-diazo-5-oxohexanoic acid]",ILS,[1],106.7%
same,MST,[1],31 days
same,RTV at day 11,[1],2.22 ± 0.22
same,Tumor Size at day 11,[1],152 ± 10 mm^3
same,Tumor volume,"Group 7, 1 mpk SC qd Mon-Fri x4 cycles, day 0",70 ± 4 mm^3
same,Tumor volume,"Group 7, 1 mpk SC qd Mon-Fri x4 cycles, day 2",91 ± 9 mm^3
same,Tumor volume,"Group 7, 1 mpk SC qd Mon-Fri x4 cycles, day 4",83 ± 9 mm^3
same,Tumor volume,"Group 7, 1 mpk SC qd Mon-Fri x4 cycles, day 7",201 ± 26 mm^3
same,Tumor volume,"Group 7, 1 mpk SC qd Mon-Fri x4 cycles, day 9",181 ± 18 mm^3
same,T/C,[2],13.66%
same,TGI,[2],92.34%
same,Tumor volume,[2],152 ± 10 mm^3
same,Tumor volume,"Group 7, 1 mpk SC qd Mon-Fri x4 cycles, day 14",293 ± 60 mm^3
same,Tumor volume,"Group 7, 1 mpk SC qd Mon-Fri x4 cycles, day 16",298 ± 60 mm^3
same,Tumor volume,"Group 7, 1 mpk SC qd Mon-Fri x4 cycles, day 18",400 ± 79 mm^3
same,Tumor volume,"Group 7, 1 mpk SC qd Mon-Fri x4 cycles, day 21",644 ± 160 mm^3
same,Tumor volume,"Group 7, 1 mpk SC qd Mon-Fri x4 cycles, day 23",975 ± 238 mm^3
same,ILS,[3],170.0%
same,MST,[3],40.5 days
same,RTV at day 11,[3],0.85 ± 0.11
same,Tumor Size at day 11,[3],39 ± 5 mm^3
same,Tumor volume,"Group 8, 3 mpk SC qd Mon-Fri x4 cycles, day 0",70 ± 5 mm^3
same,Tumor volume,"Group 8, 3 mpk SC qd Mon-Fri x4 cycles, day 2",88 ± 7 mm^3
same,Tumor volume,"Group 8, 3 mpk SC qd Mon-Fri x4 cycles, day 4",59 ± 9 mm^3
same,Tumor volume,"Group 8, 3 mpk SC qd Mon-Fri x4 cycles, day 7",57 ± 14 mm^3
same,Tumor volume,"Group 8, 3 mpk SC qd Mon-Fri x4 cycles, day 9",45 ± 6 mm^3
same,T/C,[4],5.22%
same,TGI,[4],101.21%
same,Tumor volume,[4],39 ± 5 mm^3
same,Tumor volume,"Group 8, 3 mpk SC qd Mon-Fri x4 cycles, day 14",41 ± 7 mm^3
same,Tumor volume,"Group 8, 3 mpk SC qd Mon-Fri x4 cycles, day 16",47 ± 7 mm^3
same,Tumor volume,"Group 8, 3 mpk SC qd Mon-Fri x4 cycles, day 18",22 ± 4 mm^3
same,Tumor volume,"Group 8, 3 mpk SC qd Mon-Fri x4 cycles, day 21",29 ± 3 mm^3
same,Tumor volume,"Group 8, 3 mpk SC qd Mon-Fri x4 cycles, day 23",26 ± 2 mm^3
same,Tumor volume,"Group 8, 3 mpk SC qd Mon-Fri x4 cycles, day 25",23 ± 4 mm^3
same,Tumor volume,"Group 8, 3 mpk SC qd Mon-Fri x4 cycles, day 28",22 ± 4 mm^3
same,Tumor volume,"Group 8, 3 mpk SC qd Mon-Fri x4 cycles, day 30",52 ± 8 mm^3
same,Tumor volume,"Group 8, 3 mpk SC qd Mon-Fri x4 cycles, day 32",213 ± 47 mm^3
same,Tumor volume,"Group 8, 3 mpk SC qd Mon-Fri x4 cycles, day 35",351 ± 61 mm^3
same,Tumor volume,"Group 8, 3 mpk SC qd Mon-Fri x4 cycles, day 37",692 ± 129 mm^3
same,ILS,[5],180.0%
same,MST,[5],42 days
same,RTV at day 11,[5],0.56 ± 0.07
same,Tumor Size at day 11,[5],39 ± 5 mm^3
same,Tumor volume,"Group 9, 9 mpk SC qd Mon-Fri x4 cycles, day 0",71 ± 5 mm^3
same,Tumor volume,"Group 9, 9 mpk SC qd Mon-Fri x4 cycles, day 2",88 ± 7 mm^3
same,Tumor volume,"Group 9, 9 mpk SC qd Mon-Fri x4 cycles, day 4",59 ± 9 mm^3
same,Tumor volume,"Group 9, 9 mpk SC qd Mon-Fri x4 cycles, day 7",57 ± 14 mm^3
same,Tumor volume,"Group 9, 9 mpk SC qd Mon-Fri x4 cycles, day 9",45 ± 6 mm^3
same,T/C,[6],3.45%
same,TGI,[6],102.98%
same,Tumor volume,[6],39 ± 5 mm^3
same,Tumor volume,"Group 9, 9 mpk SC qd Mon-Fri x4 cycles, day 14",41 ± 7 mm^3
same,Tumor volume,"Group 9, 9 mpk SC qd Mon-Fri x4 cycles, day 16",47 ± 7 mm^3
same,Tumor volume,"Group 9, 9 mpk SC qd Mon-Fri x4 cycles, day 18",22 ± 4 mm^3
same,Tumor volume,"Group 9, 9 mpk SC qd Mon-Fri x4 cycles, day 21",29 ± 3 mm^3
same,Tumor volume,"Group 9, 9 mpk SC qd Mon-Fri x4 cycles, day 23",26 ± 2 mm^3
same,Tumor volume,"Group 9, 9 mpk SC qd Mon-Fri x4 cycles, day 25",23 ± 4 mm^3
same,Tumor volume,"Group 9, 9 mpk SC qd Mon-Fri x4 cycles, day 28",22 ± 4 mm^3
same,Tumor volume,"Group 9, 9 mpk SC qd Mon-Fri x4 cycles, day 30",52 ± 8 mm^3
same,Tumor volume,"Group 9, 9 mpk SC qd Mon-Fri x4 cycles, day 32",213 ± 47 mm^3
same,Tumor volume,"Group 9, 9 mpk SC qd Mon-Fri x4 cycles, day 35",351 ± 61 mm^3
same,Tumor volume,"Group 9, 9 mpk SC qd Mon-Fri x4 cycles, day 37",692 ± 129 mm^3
same,Tumor volume,"Group 9, 9 mpk SC qd Mon-Fri x4 cycles, day 39",1235 ± 196 mm^3
same,Tumor volume,"Group 9, 9 mpk SC qd Mon-Fri x4 cycles, day 42",2174 ± 275 mm^3
same,ILS,[7],146.7%
same,MST,[7],37 days
same,Tumor volume,"Group 10, 7 mpk IV tiw x4 cycles, day 0",71 ± 5 mm^3
same,Tumor volume,"Group 10, 7 mpk IV tiw x4 cycles, day 2",86 ± 5 mm^3
same,Tumor volume,"Group 10, 7 mpk IV tiw x4 cycles, day 4",76 ± 7 mm^3
same,Tumor volume,"Group 10, 7 mpk IV tiw x4 cycles, day 7",76 ± 8 mm^3
same,Tumor volume,"Group 10, 7 mpk IV tiw x4 cycles, day 9",61 ± 7 mm^3
same,Tumor volume,"Group 10, 7 mpk IV tiw x4 cycles, day 11",68 ± 13 mm^3
same,Tumor volume,"Group 10, 7 mpk IV tiw x4 cycles, day 14",85 ± 16 mm^3
same,Tumor volume,"Group 10, 7 mpk IV tiw x4 cycles, day 16",115 ± 21 mm^3
same,Tumor volume,"Group 10, 7 mpk IV tiw x4 cycles, day 18",107 ± 21 mm^3
same,Tumor volume,"Group 10, 7 mpk IV tiw x4 cycles, day 21",131 ± 21 mm^3
same,Tumor volume,"Group 10, 7 mpk IV tiw x4 cycles, day 23",233 ± 46 mm^3
same,Tumor volume,"Group 10, 7 mpk IV tiw x4 cycles, day 25",273 ± 59 mm^3
same,Tumor volume,"Group 10, 7 mpk IV tiw x4 cycles, day 28",356 ± 103 mm^3
same,Tumor volume,"Group 10, 7 mpk IV tiw x4 cycles, day 30",575 ± 121 mm^3
same,Tumor volume,"Group 10, 7 mpk IV tiw x4 cycles, day 32",849 ± 134 mm^3
same,Tumor volume,"Group 10, 7 mpk IV tiw x4 cycles, day 35",1688 ± 223 mm^3

# Reference: patent US20220117938A1, “COMBINATON THERAPY WITH A DON PRODRUG AND AN IMMUNE CHECKPOINT INHIBITOR” (DRACEN PHARMACEUTICALS, INC., priority 2019, published 2022)
